Test results reported in patent US20250296953A1, “3,4-THIAZOLO-STEROIDS AND METHODS OF MAKING AND USING THE SAME” (Arkansas State University - Jonesboro, priority 2018, published 2025).

Tests used:
HFF-1 = test: Cytotoxicity assay (resazurin); format: cell-based; conditions: Homo sapiens; HFF-1 cells; read-out: HFF-1 (IC50)
SK-MEL-28 = test: Melanoma cytotoxicity assay (resazurin); format: cell-based
Experimental: (§1) Cytotoxicity Assay: Melanoma cells (˜4000 cells in each well) were incubated in a 96 well plates at 37° C. in 5% CO2 for 24 hours. Compounds were added in triplicates and the plate was further incubated for 24 hours. DMSO and dacarbazine were added as technical and positive controls respectively. Next day resazurin was added and the plate was further incubated for 6 hours followed by reading the plate at 544 nm (excitation) and 590 nm (emission) using BMG Labtech Fluostar Optima plate reader. IC50 values were determined by using Graphpad Prism.
(§2) On day 1, the cell line trypsinized and centrifuged to form cell pellet. The pellet was diluted in media, then counted using Countess automated cell counter. Approximately 4000 cells (198 uL) per well plated in […]. A control well of 200 uL growth media was also prepared. Wells closest to plate perimeter were filled with 200 uL PBS to prevent inner well evaporation. The 96 well plates are incubated in 37° C. incubator at 5% CO2 for 24 hours.
(§3) On day 2, compounds were added (in triplicate) along with DMSO/Dacarbazine controls (2 uL) added to bring wells to volume of 200 μL. The 96 well plates are incubated in 37° C. incubator at 5% CO2 for 24 hours.
(§4) On day 3, 40 μL of 0.15 mg/ml reszurin solution added to wells. Samples were placed in a 37° C. incubator at 5% CO2 for 6 hours. Excitation and emission for fluorescence measured at 544 nm and 590 nm using BMG Labtech Fluostar Optima plate reader
(§5) Percent viability determined by taking average of each triplicate well fluorescence and subtracting GM well reading to remove the background signal. This difference is then divided by the average of the negative control (DMSO) wells to determine percent viability.
(§6) IC50s were determined by using cereal dilution of compound to determine viability. Viabilities and concentration of cells are analyzed in Graphpad Prism by creating sigmoidal curve graph, which will determine the IC50 concentration.
(§7) We analyzed the ability of the thiazole-androstane derivatives to inhibit growth in various melanoma cell lines. The growth inhibition against melanoma cell lines of various compound is shown below in Tables 19 and 20. Inhibition results are reported as the IC50 concentration in μM of the indicated compound or as the percent viability […] of the indicated compound. NA=not available.

SK-MEL-25 = test: Melanoma cytotoxicity assay (resazurin); format: cell-based
Experimental: as §1, §2, §3, §4, §5, §6, §7

LOX IMVI = test: Melanoma cytotoxicity assay (resazurin); format: cell-based
Experimental: as §1, §2, §3, §4, §5, §6, §7

SK-MEL-5 = test: Melanoma cytotoxicity assay (resazurin); format: cell-based
Experimental: as §1, §2, §3, §4, §5, §6, §7

MALME-3M = test: Melanoma cytotoxicity assay (resazurin); format: cell-based; conditions: human, 24 h
Experimental: as §2, §3, §4, §5, §6, §7

HCT-15 (Colon Cancer) = test: NCI 60 one dose screen; format: cell-based, human
[1] = test system: 60 different human tumor cell lines; test: NCI Development Therapeutics Program 60 cell line screen, one dose; format: cell-based
NCI-H522 (NSCLC) = test: NCI 60 one dose screen; format: cell-based, human; conditions: Non-small Cell Lung Cancer
SF-539 = test: NCI 60 one dose screen; format: cell-based, human; conditions: one dose; CNS Cancer; SF-539
SF-295 = test: NCI 60 one dose screen; format: cell-based, human; conditions: one dose; CNS Cancer; SF-295

## C[C@]12CC[C@H]3[C@@H](CC=C4c5sc(Nc6ccc(F)cc6)nc5CC[C@@]43C)[C@@H]1CC[C@@H]2O [IIIa.12, (1S,2R,13R,14S,17S,18S)-7-(4-fluoroanilino)-2,18-dimethyl-8-thia-6-azapentacyclo[11.7.0.02,10.05,9.014,18]icosa-5(9),6,10-trien-17-ol]
HFF-1
  IC50: 24 µM
SK-MEL-28; Homo sapiens, SK-MEL-28 melanoma cells
  IC50: 10 µM
SK-MEL-28; human, 24 h
  SK-MEL-28 (% viability): 2.35%
SK-MEL-25; Homo sapiens, SK-MEL-25 melanoma cells (head prints SK-25), read-out: SK-25 IC50
  IC50: 7 µM
SK-MEL-25; human, 24 h
  SK-MEL-25 (% viability): 7.33%
LOX IMVI; Homo sapiens, LOX IMVI melanoma cells
  IC50: 5.2 µM
LOX IMVI; human, 24 h
  LOX-IMVI (% viability): 12%
SK-MEL-5; human, 24 h
  SK-MEL-5 (% viability): 3.66%
MALME-3M
  MALME-3M (% viability): 35.97%

## CN(c1ccccc1)c1nc2c(s1)CC[C@@]1(C)C2=CC[C@@H]2[C@@H]1CC[C@]1(C)C(=O)CC[C@@H]21 [IIa.6, (1S,2R,13R,14S,18S)-2,18-dimethyl-7-(N-methylanilino)-6-thia-8-azapentacyclo[11.7.0.02,10.05,9.014,18]icosa-5(9),7,10-trien-17-one]
HCT-15 (Colon Cancer)
  Growth Percent: 35.23%
SK-MEL-28; SK-MEL-28 melanoma cells, 24 hours with compound, resazurin, concentration not given
  SK-MEL-28 (% inhibition): 60%
SK-MEL-25; SK-MEL-25 melanoma cells, 24 hours with compound, resazurin, concentration not given
  SK-MEL-25 (% inhibition): 60%
SK-MEL-5; SK-MEL-5 melanoma cells, 24 hours with compound, resazurin, concentration not given
  SK-MEL-5 (% inhibition): 63%
[1]; Breast Cancer, BT-549
  Growth Percent: 45.19%
[1]; Breast Cancer, HS 578T
  Growth Percent: 54.53%
[1]; Breast Cancer, MCF7
  Growth Percent: 32.55%
[1]; Breast Cancer, MDA-MB-231/ATCC
  Growth Percent: 68.22%
[1]; Breast Cancer, MDA-MB-468
  Growth Percent: 29.56%
[1]; Breast Cancer, T-47D
  Growth Percent: 65.84%
[1]; CNS Cancer, SF-268
  Growth Percent: 73.87%
[1]; CNS Cancer, SNB-19
  Growth Percent: 54.72%
[1]; CNS Cancer, SNB-75
  Growth Percent: 73.17%
[1]; CNS Cancer, U251
  Growth Percent: 36.99%
[1]; Colon Cancer, COLO 205
  Growth Percent: 48.79%
[1]; Colon Cancer, HCC-2998
  Growth Percent: 82.14%
[1]; Colon Cancer, HCT-116
  Growth Percent: 32.71%
[1]; Colon Cancer, HT29
  Growth Percent: 10.25%
[1]; Colon Cancer, KM12
  Growth Percent: 33.11%
[1]; Colon Cancer, SW-620
  Growth Percent: 44.14%
[1]; Leukemia, CCRF-CEM
  Growth Percent: 44.17%
[1]; Leukemia, HL-60(TB)
  Growth Percent: 44.55%
[1]; Leukemia, MOLT-4
  Growth Percent: 45.63%
[1]; Leukemia, RPMI-8226
  Growth Percent: 48.36%
[1]; Leukemia, SR
  Growth Percent: 31.74%
[1]; Melanoma, LOX IMVI
  Growth Percent: 66.30%
[1]; Melanoma, M14
  Growth Percent: 41.12%
[1]; Melanoma, MALME-3M
  Growth Percent: 55.43%
[1]; Melanoma, MDA-MB-435
  Growth Percent: 2.34%
[1]; Melanoma, SK-MEL-2
  Growth Percent: 49.76%
[1]; Melanoma, SK-MEL-5
  Growth Percent: 32.53%
[1]; Melanoma, SK-MEL-28
  Growth Percent: 72.19%
[1]; Melanoma, UACC-62
  Growth Percent: 38.23%
[1]; Melanoma, UACC-257
  Growth Percent: 67.13%
[1]; Non-small Cell Lung Cancer, A549/ATCC
  Growth Percent: 47.72%
[1]; Non-small Cell Lung Cancer, EKVX
  Growth Percent: 78.34%
[1]; Non-small Cell Lung Cancer, HOP-62
  Growth Percent: 70.07%
[1]; Non-small Cell Lung Cancer, HOP-92
  Growth Percent: 78.79%
[1]; Non-small Cell Lung Cancer, NCI-H23
  Growth Percent: 79.64%
[1]; Non-small Cell Lung Cancer, NCI-H226
  Growth Percent: 83.39%
[1]; Non-small Cell Lung Cancer, NCI-H322M
  Growth Percent: 89.66%
[1]; Non-small Cell Lung Cancer, NCI-H460
  Growth Percent: 38.69%
[1]; Ovarian Cancer, IGROV1
  Growth Percent: 67.27%
[1]; Ovarian Cancer, NCI/ADR-RES
  Growth Percent: 43.96%
[1]; Ovarian Cancer, OVCAR-3
  Growth Percent: 36.20%
[1]; Ovarian Cancer, OVCAR-4
  Growth Percent: 83.97%
[1]; Ovarian Cancer, OVCAR-5
  Growth Percent: 98.72%
[1]; Ovarian Cancer, OVCAR-8
  Growth Percent: 76.81%
[1]; Ovarian Cancer, SK-OV-3
  Growth Percent: 79.14%
[1]; Prostate Cancer, DU-145
  Growth Percent: 79.22%
[1]; Prostate Cancer, PC-3
  Growth Percent: 71.01%
[1]; Renal Cancer, 786-0
  Growth Percent: 58.79%
[1]; Renal Cancer, A498
  Growth Percent: 50.67%
[1]; Renal Cancer, ACHN
  Growth Percent: 93.66%
[1]; Renal Cancer, CAKI-1
  Growth Percent: 61.11%
[1]; Renal Cancer, RXF 393
  Growth Percent: 79.66%
[1]; Renal Cancer, SN12C
  Growth Percent: 77.26%
[1]; Renal Cancer, TK-10
  Growth Percent: 91.08%
[1]; Renal Cancer, UO-31
  Growth Percent: 79.34%
NCI-H522 (NSCLC)
  Growth Percent: 8.26%
SF-539
  Growth Percent: 51.35%
SF-295
  Growth Percent: 42.68%
